According to the CheMixHub drug solubility set:

Test: xn = mol fraction of the nth substance listed, in the solute-free solvent

SMILES: Cc1[nH]c(=O)c(C#N)cc1-c1ccncc1 + CCO + O
- solubility (g/100 g solution) (278.15 K, x2 = 0.04165): 0.000675
- solubility (g/100 g solution) (278.15 K, x2 = 0.08908): 0.000855
- solubility (g/100 g solution) (278.15 K, x2 = 0.1436): 0.00114
- solubility (g/100 g solution) (278.15 K, x2 = 0.2068): 0.00154
- solubility (g/100 g solution) (278.15 K, x2 = 0.2812): 0.00206
- solubility (g/100 g solution) (278.15 K, x2 = 0.3698): 0.00266
- solubility (g/100 g solution) (278.15 K, x2 = 0.4772): 0.00326
- solubility (g/100 g solution) (278.15 K, x2 = 0.6101): 0.00373
- solubility (g/100 g solution) (278.15 K, x2 = 0.7788): 0.00412
- solubility (g/100 g solution) (283.15 K, x2 = 0.04165): 0.000813
- solubility (g/100 g solution) (283.15 K, x2 = 0.08908): 0.00103
- solubility (g/100 g solution) (283.15 K, x2 = 0.1436): 0.00138
- solubility (g/100 g solution) (283.15 K, x2 = 0.2068): 0.00186
- solubility (g/100 g solution) (283.15 K, x2 = 0.2812): 0.00239
- solubility (g/100 g solution) (283.15 K, x2 = 0.3698): 0.00322
- solubility (g/100 g solution) (283.15 K, x2 = 0.4772): 0.00385
- solubility (g/100 g solution) (283.15 K, x2 = 0.6101): 0.00451
- solubility (g/100 g solution) (283.15 K, x2 = 0.7788): 0.00503
- solubility (g/100 g solution) (288.15 K, x2 = 0.04165): 0.000966
- solubility (g/100 g solution) (288.15 K, x2 = 0.08908): 0.00123
- solubility (g/100 g solution) (288.15 K, x2 = 0.1436): 0.00163
- solubility (g/100 g solution) (288.15 K, x2 = 0.2068): 0.00221
- solubility (g/100 g solution) (288.15 K, x2 = 0.2812): 0.00288
- solubility (g/100 g solution) (288.15 K, x2 = 0.3698): 0.00381
- solubility (g/100 g solution) (288.15 K, x2 = 0.4772): 0.00461
- solubility (g/100 g solution) (288.15 K, x2 = 0.6101): 0.0054
- solubility (g/100 g solution) (288.15 K, x2 = 0.7788): 0.00602
- solubility (g/100 g solution) (293.15 K, x2 = 0.04165): 0.00114
- solubility (g/100 g solution) (293.15 K, x2 = 0.08908): 0.00144
- solubility (g/100 g solution) (293.15 K, x2 = 0.1436): 0.00192
- solubility (g/100 g solution) (293.15 K, x2 = 0.2068): 0.00259
- solubility (g/100 g solution) (293.15 K, x2 = 0.2812): 0.00338
- solubility (g/100 g solution) (293.15 K, x2 = 0.3698): 0.00446
- solubility (g/100 g solution) (293.15 K, x2 = 0.4772): 0.0054
- solubility (g/100 g solution) (293.15 K, x2 = 0.6101): 0.00637
- solubility (g/100 g solution) (293.15 K, x2 = 0.7788): 0.00705
- solubility (g/100 g solution) (298.15 K, x2 = 0.04165): 0.00133
- solubility (g/100 g solution) (298.15 K, x2 = 0.08908): 0.00169
- solubility (g/100 g solution) (298.15 K, x2 = 0.1436): 0.00225
- solubility (g/100 g solution) (298.15 K, x2 = 0.2068): 0.00303
- solubility (g/100 g solution) (298.15 K, x2 = 0.2812): 0.0039
- solubility (g/100 g solution) (298.15 K, x2 = 0.3698): 0.00518
- solubility (g/100 g solution) (298.15 K, x2 = 0.4772): 0.00629
- solubility (g/100 g solution) (298.15 K, x2 = 0.6101): 0.00745
- solubility (g/100 g solution) (298.15 K, x2 = 0.7788): 0.00817
- solubility (g/100 g solution) (303.15 K, x2 = 0.04165): 0.00153
- solubility (g/100 g solution) (303.15 K, x2 = 0.08908): 0.00194
- solubility (g/100 g solution) (303.15 K, x2 = 0.1436): 0.00258
- solubility (g/100 g solution) (303.15 K, x2 = 0.2068): 0.00348
- solubility (g/100 g solution) (303.15 K, x2 = 0.2812): 0.00453
- solubility (g/100 g solution) (303.15 K, x2 = 0.3698): 0.00596
- solubility (g/100 g solution) (303.15 K, x2 = 0.4772): 0.00717
- solubility (g/100 g solution) (303.15 K, x2 = 0.6101): 0.00844
- solubility (g/100 g solution) (303.15 K, x2 = 0.7788): 0.00928
- solubility (g/100 g solution) (308.15 K, x2 = 0.04165): 0.00174
- solubility (g/100 g solution) (308.15 K, x2 = 0.08908): 0.00221
- solubility (g/100 g solution) (308.15 K, x2 = 0.1436): 0.00294
- solubility (g/100 g solution) (308.15 K, x2 = 0.2068): 0.00395
- solubility (g/100 g solution) (308.15 K, x2 = 0.2812): 0.00517
- solubility (g/100 g solution) (308.15 K, x2 = 0.3698): 0.00676
- solubility (g/100 g solution) (308.15 K, x2 = 0.4772): 0.00815
- solubility (g/100 g solution) (308.15 K, x2 = 0.6101): 0.00959
- solubility (g/100 g solution) (308.15 K, x2 = 0.7788): 0.0105
- solubility (g/100 g solution) (313.15 K, x2 = 0.04165): 0.00198
- solubility (g/100 g solution) (313.15 K, x2 = 0.08908): 0.00251
- solubility (g/100 g solution) (313.15 K, x2 = 0.1436): 0.00333
- solubility (g/100 g solution) (313.15 K, x2 = 0.2068): 0.00447
- solubility (g/100 g solution) (313.15 K, x2 = 0.2812): 0.00586
- solubility (g/100 g solution) (313.15 K, x2 = 0.3698): 0.00763
- solubility (g/100 g solution) (313.15 K, x2 = 0.4772): 0.00921
- solubility (g/100 g solution) (313.15 K, x2 = 0.6101): 0.0108
- solubility (g/100 g solution) (313.15 K, x2 = 0.7788): 0.0119
- solubility (g/100 g solution) (318.15 K, x2 = 0.04165): 0.00224
- solubility (g/100 g solution) (318.15 K, x2 = 0.08908): 0.00285
- solubility (g/100 g solution) (318.15 K, x2 = 0.1436): 0.00377
- solubility (g/100 g solution) (318.15 K, x2 = 0.2068): 0.00505
- solubility (g/100 g solution) (318.15 K, x2 = 0.2812): 0.00662
- solubility (g/100 g solution) (318.15 K, x2 = 0.3698): 0.0086
- solubility (g/100 g solution) (318.15 K, x2 = 0.4772): 0.0105
- solubility (g/100 g solution) (318.15 K, x2 = 0.6101): 0.0122
- solubility (g/100 g solution) (318.15 K, x2 = 0.7788): 0.0135
- solubility (g/100 g solution) (323.15 K, x2 = 0.04165): 0.00254
- solubility (g/100 g solution) (323.15 K, x2 = 0.08908): 0.00321
- solubility (g/100 g solution) (323.15 K, x2 = 0.1436): 0.00426
- solubility (g/100 g solution) (323.15 K, x2 = 0.2068): 0.0057
- solubility (g/100 g solution) (323.15 K, x2 = 0.2812): 0.00754
- solubility (g/100 g solution) (323.15 K, x2 = 0.3698): 0.00968
- solubility (g/100 g solution) (323.15 K, x2 = 0.4772): 0.0119
- solubility (g/100 g solution) (323.15 K, x2 = 0.6101): 0.0138
- solubility (g/100 g solution) (323.15 K, x2 = 0.7788): 0.0153
